Results on five compounds are retold here after patent US7943795B2, “Vitamin D receptor modulators” (Eli Lilly and Company, priority 2004, dated 2011).

As a reminder, the EC50 is the concentration that produces a half-maximal response.

In one assay the target is T1, RXR-VDR heterodimer (Homo sapiens, UniProt P11473).
T1 construct: add the Reporter gene pFR-LUC; and add the Gal-4-RXR-DEF and VP16-VDR-LBD; expressed in transfected cells; host or cells: SaOS-2 cells
T1 sequence (P11473 127-423 limits assumed): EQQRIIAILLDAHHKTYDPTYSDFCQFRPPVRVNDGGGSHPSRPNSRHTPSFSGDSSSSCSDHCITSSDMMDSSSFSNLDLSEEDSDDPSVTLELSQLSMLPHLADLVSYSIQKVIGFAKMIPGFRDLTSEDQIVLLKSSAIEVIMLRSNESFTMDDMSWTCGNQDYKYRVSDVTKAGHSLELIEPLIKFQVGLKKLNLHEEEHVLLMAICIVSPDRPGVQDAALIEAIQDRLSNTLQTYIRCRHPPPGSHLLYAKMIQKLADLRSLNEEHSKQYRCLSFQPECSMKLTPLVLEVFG
T1 sequence (P19793 201-462 partner limits assumed): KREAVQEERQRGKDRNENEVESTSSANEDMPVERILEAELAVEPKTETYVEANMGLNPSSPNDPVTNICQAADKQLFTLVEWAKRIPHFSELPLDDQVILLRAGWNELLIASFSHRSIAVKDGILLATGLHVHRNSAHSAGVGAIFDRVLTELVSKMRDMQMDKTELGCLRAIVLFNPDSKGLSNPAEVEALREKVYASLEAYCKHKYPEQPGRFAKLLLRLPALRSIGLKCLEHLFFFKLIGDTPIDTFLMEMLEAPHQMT
Briefly: RXR-VDR heterodimerization (SaOS-2 cells) test. Type of assay: cell-based. The settings on record: Gal-4-RXR-DEF / VP16-VDR-LBD, luciferase reporter. The procedure: 2. The RXR-VDR heterodimerization (SaOS-2 cells) test is described in the “Assay” section of the Description, infra.
1. The RXR-VDR Heterodimer Assay:
This assay provides the VDR activity of a test compound. It is desirable to have low EC50 values for a compound in this assay. […] Desired assay results are EC50 values less than or equal to 600 nM. Preferred assay results are less than 250 nM, and most preferably less than 150 nM.
(1) Materials and Method for RXR-VDR Heterodimerization Assay Transfection
• Method: Reagents: FuGENE 6 Transfection Reagent (Roche Cat #1 814 443); Growth Media: D-MEM High Glucose (Gibco BRL Cat #11054-020), 10% heat inactivated FBS, (Gibco BRL Cat#10092-147) 1% antibiotic-antimycotic (Ab-Am); (Gibco BRL Cat #15240-062). • Cells: Grow SaOS-2 cells in T-150 cm^2 culture flasks in growth media keeping the density at 5-6×10^5 cells/ml. Passage cells 1:3 twice a week. Add Trypsin EDTA (Gibco BRL Cat #25300-020) and incubate. Resuspend cells in plating media and transfer into growth media. • Wash Media: HBSS Low Glucose Without Phenol Red (Gibco BRL Cat #14175-095), 1% Ab-Am. Plating Media: D-MEM Low Glucose Without Phenol Red (Gibco BRL Cat #11054-020), 1% Ab-Am; D-MEM; 10% Stripped FBS (Hyclone Cat#SH30068.03 Lot #AHM9371); • Transfection/Treatment Media: D-MEM Low Glucose Without Phenol Red only; T-150 cm^2 culture flask: Use Corning Coastar T-150 cm^2 culture flask (Cat #430825) to grow the cells. • Luciferase Assay Reagent: Use Steady-Glo Luciferase Reagent from Promega (Cat #E2550) Consists of: E2533 Assay Substrate, lyophilized product and E2543 Assay Buffer. Thaw at room temperature and store. • Cell Harvesting/Count: Aspirate media from culture flask, rinse cells with HBSS and aspirate. Add trypsin and incubate. When cells appear detached, resuspend cells in growth media. Transfer into a new flask with fresh growth media for passaging the cells. Plate 96 well plates and two extra plates. Mix the cell suspension using pipette. To count the cells using a Hematocytometer. • Plate seeding: Use plating media 10% Stripped FBS in D-MEM Low Glucose, without Phenol Red, 1% Ab-Am. Plate 14 plates @ 165 μl/well. In sterile flask add cell suspension to plating media and mix. Add cells/well. Place the cells in the incubator. Cells should be about 75% confluent prior to transfection. DAY 2: Transfection: Step 1, DNA and Media: Add plain DMEM media to tubes for mixing the DNA; add the Reporter gene pFR-LUC; and add the Gal-4-RXR-DEF and VP16-VDR-LBD. Step 2, FuGENE and Media: Prepare plain DMEM media in a tubes for mixing FuGENE, add FuGENE 6 Transfection Reagent, and incubate. Step 3, FuGENE, DNA and Media Complex: Add FuGENE Media complex from step 2 to DNA Media complex from step 1 and incubate. Step 4, FuGENE, DNA and Media Complex to 96 well plate: Add FuGENE-DNA-Media complex from step 3 to each plate. Incubate. • Day 3: Dosing: Treatment preparation. Allow for transfection time. Make a stock solution of the compounds in DMSO and vortex until all the compounds have been dissolved. Further dilute in D-MEM (Low Glucose—without Phenol Red) Add compounds in quadruplicate to give desired final volume then incubate. • Day 4: Luciferase Assay: Read the plates after drug treatment. Remove part of media from all the wells and leave remainder. Add Steady-Glo Luciferase Reagent mixture/wells and incubate. Count each well using a Luminescence counter, Top Count NXT by Packard preferably set a delay between plates to reduce the background.
For orientation: A reporter such as luciferase makes a cellular process visible.

A further assay concerns the target T2, VDR (Homo sapiens, UniProt P11473).
T2 construct: the receptor expression vector pGal4-VDR-LBD (10 ng); expressed in transfected cells; host or cells: Caco-2 cells
T2 sequence (P11473 127-423 limits assumed): T1 sequence (P11473 127-423 limits assumed)
Briefly: VDR CTF (Caco-2 cells) co-transfection assay. Type of assay: cell-based. The conditions noted are these: pGal4-VDR-LBD, luciferase reporter. The procedure: 3. The VDR CTF (Caco-2 cells) test is described in the “Assay” section of the Description, infra.
The Caco-2 cell assay is an indicator for the undesirable condition of hypercalcemia. This co-transfection assay is a surrogate assay for in vivo calcemic activity of VDR ligands. It is desirable to have high EC50 values for a test compound in this assay. The higher the EC50 values for a compound the less calcemic it will be in vivo. Desired assay results are EC50 greater than or equal to 300 nM. Preferred assay results are greater than 1000 nM.
Caco-2 cells, grown in phenol red free, DMEM (Invitrogen, Carlsbad, Calif.) containing 10% charcoal-stripped FBS (Hyclone, Logan, Utah), are transfected with Fugene 6 reagent (Roche Diagnostics, Indianapolis, Ind.). Cells (5000/well) are plated 18 h before transfection in a 96 well plate. The cells are transfected with Gal4-responsive reporter pFRLuc (150 ng, Stratagene, La Jolla Calif.) and the receptor expression vector pGal4-VDR-LBD (10 ng), along with Fugene 6 reagent (0.2 μl/well). The DNA-Fugene complex is formed by incubating the mixture for 30 m at room temperature. The cells are transfected in triplicate for 5 h, and treated with various concentrations of VDR ligands (from 0.01 nM to […] concentration range) 18 h post-transfection. The luciferase activity is quantified using Steady-Glo reagent kit (Promega, Madison, Wis.) as per manufacturer's specifications.

On to `CCC(CC)(c1ccc(OCC(O)C(C)(C)C)c(C)c1)c1ccc2cc(C(=O)O)ccc2c1` (single isomer, unassigned) [Ex. 2A, 6-{1-Ethyl-1-[4-(2-hydroxy-3,3-dimethyl-butoxy)-3-methyl-phenyl]-propyl}-naphthalene-2-carboxylic acid], for which the EC50 at RXR-VDR heterodimer turned out to be 30.2 nM; on VDR, 466 nM.
The like results for `CCC(CC)(c1ccc(OCC(=O)C(C)(C)C)c(C)c1)c1ccc2cc(C(=O)O)ccc2c1` [Ex. 1, 6-{1-[4-(3,3-dimethyl-2-oxobutoxy)-3-methylphenyl]-1-ethylpropyl}naphthalene-2-carboxylic acid] were, in that order, 40 nM and 194 nM.
The like results for `CCC(CC)(c1ccc(OCC(=O)C(C)(C)C)c(C)c1)c1ccc2cc(C(=O)NCC(=O)O)ccc2c1` [Ex. 3, [(6-{1-[4-(3,3-Dimethyl-2-oxo-butoxy)-3-methylphenyl]-1-ethylpropyl}naphthalene-2-carbonyl)amino]acetic acid] were, in that order, 0.4 nM and 35 nM.
The like results for `CCC(CC)(c1ccc(OCC(=O)C(C)(C)C)c(C)c1)c1ccc2cc(C(=O)N(C)C)ccc2c1` [Ex. 4, 6-{1-[4-(3,3-dimethyl-2-oxobutoxy)-3-methylphenyl]-1-ethylpropyl}naphthalene-2-carboxylic acid dimethylamide] were, in that order, 105 nM and 550 nM.
Turning to `CCC(CC)(c1ccc(OCC(=O)C(C)(C)C)c(C)c1)c1ccc2cc(C(=O)N(C)CC(=O)O)ccc2c1` [Ex. 5, [(6-{1-[4-(3,3-Dimethyl-2-oxobutoxy)-3-methylphenyl]-1-ethylpropyl}naphthalene-2-carbonyl)methylamino]acetic acid], the EC50 worked out at 1 nM at RXR-VDR heterodimer and 162 nM on VDR.
